The structures appear in SMILES notation.

Common to all, as to format: cell-based
Assay [1] concerns the target T1, LPAR1 (Homo sapiens, UniProt Q92633).
T1 construct: host or cells: U2OS
Put plainly: LPAR1 FLIPR Assay. Conditions: U2OS cells stably expressing LPAR1, LPA (EC80), Calcium 6 FLIPR dye; for Emax: read-out: Maximum Inhibition. The essentials:
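Calcium flux read-out (515-575 nm, FLIPR) in LPAR1-expressing U2OS cells after LPA challenge at EC80, given 3 min after compound addition; cells carried Calcium 6 dye loaded 2 h at 37° C. Eleven-point 3-fold dilutions were fitted with a four-parameter Hill equation for IC50.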

Assay [2] addresses T1, LPAR1. Put plainly: IP-One HTRF Assay. The conditions noted are these: U2OS cells stably expressing LPAR1, LPA stimulation, IP-One Tb HTRF kit; for Emax: read-out: Maximum Inhibition. The procedure, abridged: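 U2OS cells stably expressing LPAR1 were preincubated with compound (11-point 3-fold series from 2 mM DMSO stock) for 20 min at 37 °C, then stimulated with LPA for 2 h at 37 °C. IP1 accumulation was read by IP-One HTRF (665/615 nm ratio). IC50 came from four-parameter logistic Hill fits.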

Assay [3] concerns LPA-induced MCP-1 in NRK-49F cells. As to the kind of experiment: LPA-induced MCP-1 AlphaLISA assay. The conditions noted are these: Rattus norvegicus, final LPA 10 μM, 7 hours; for Emax: read-out: Maximum Inhibition. The procedure, abridged:
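NRK-49F rat fibroblasts, serum-starved overnight, pretreated with compound for 30 min at 37 °C (1% DMSO final), then stimulated with 10 μM LPA final. MCP-1 in the supernatant was measured by mouse/rat CCL2 AlphaLISA. IC50 values came from four-parameter logistic fits of the ratio data.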

T1 sequence (Q92633 whole entry): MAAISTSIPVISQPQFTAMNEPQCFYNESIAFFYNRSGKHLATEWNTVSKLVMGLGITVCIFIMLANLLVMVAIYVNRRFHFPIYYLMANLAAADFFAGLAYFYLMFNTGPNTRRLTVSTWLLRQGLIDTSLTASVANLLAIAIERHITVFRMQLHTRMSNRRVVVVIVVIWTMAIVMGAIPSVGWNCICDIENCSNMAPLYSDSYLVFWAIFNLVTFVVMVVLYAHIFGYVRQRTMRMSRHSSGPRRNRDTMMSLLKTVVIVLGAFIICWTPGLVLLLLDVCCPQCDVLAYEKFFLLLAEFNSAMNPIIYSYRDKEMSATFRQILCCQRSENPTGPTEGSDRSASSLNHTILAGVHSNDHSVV

Turning to `COc1cc(C(=O)N(CCCc2ccccc2)CC(=O)NC2(C(=O)O)CC2)cc(OC)c1C` [Example 3, 1-{[N-(3,5-dimethoxy-4-methylbenzoyl)-N-(3-phenylpropyl)glycyl]amino}cyclopropane-1-carboxylic Acid], the concentration for half-maximal inhibition (IC50) in assay [1] came to 0.071 µM; in assay [2], 4.27 µM; in assay [3], 3.12 µM. In addition, the results for the Emax in assay [1], in assay [2] and in assay [3] were 52%, 76% and 74%, respectively.

On to `COc1cc(C(=O)N(CCCc2ccccc2)CCC[C@@H](C)C(=O)O)cc(OC)c1C` (single isomer, unassigned) [Example 77], for which the IC50 is 0.02 µM in assay [1], 0.077 µM in assay [2] and 0.06 µM in assay [3]. In addition, the Emax was found to be 100% in assay [1], 84% in assay [2] and 92% in assay [3].

`COc1ccc(C2(C(=O)N(CCCCC(=O)O)CCCc3ccccc3)CC2)cc1` [Example 8, 5-{[1-(4-methoxyphenyl)cyclopropane-1-carbonyl](3-phenylpropyl)amino}pentanoic Acid]: the IC50 in assay [1] came out at 0.017 µM; in assay [2] it was 2.25 µM; in assay [3], 1.83 µM. Moreover, the Emax turned out to be 86% in assay [1], 84% in assay [2] and 84% in assay [3].

On to `COc1cc(OC)cc(C(=O)N(CCCCC(=O)O)CCCc2ccccc2)c1` [Example 7, 5-[(3,5-dimethoxybenzoyl)(3-phenylpropyl)amino]pentanoic Acid], for which the IC50 in assay [1] is 0.032 µM; in assay [2], 1.75 µM; in assay [3] it was 2.63 µM. Moreover, the Emax in assay [1] was determined as 82%; in assay [2] it was 75%; in assay [3], 71%.

Take `COc1cc(C(=O)N(CCCCC(=O)O)CCCc2ccccc2)cc(OC)c1C` [Example 4, 5-[(3,5-dimethoxy-4-methylbenzoyl)(3-phenylpropyl)amino]pentanoic Acid]: the IC50 in assay [1] turned out to be 0.014 µM; in assay [2], 0.115 µM; in assay [3] it was 0.188 µM. Moreover, the Emax in assay [1] is 98%; in assay [2] it was 93%; in assay [3], 91%.

For `COc1cc(C(=O)N(CCCCC(=O)O)CCCc2ccccc2)cc(OC)c1Br` [Example 20, 5-[(4-bromo-3,5-dimethoxybenzoyl)(3-phenylpropyl)amino]pentanoic Acid], the IC50 turned out to be 0.02 µM in assay [1], 0.05 µM in assay [2] and 0.169 µM in assay [3]. For the same compound, the results for the Emax in assay [1], in assay [2] and in assay [3] were 99%, 102% and 89%, respectively.

The record behind these values is patent US20190119200A1, “TERTIARY AMIDES AND METHOD OF USE” (AbbVie Inc., priority 2016, published 2019).
